The values that follow come from US9969726B2, “Metabotropic glutamate receptor negative allosteric modulators (NAMS) and uses thereof” (Sanford-Burnham Medical Research Institute, priority 2014, dated 2018).

Like-named read-outs stand apart in the source and are kept apart here.

One assay has as its target rat mGlu3 receptor (Rattus norvegicus (Rat), UniProt P31422). Description: mGlu3 in vitro GIRK thallium flux assay. The format is cell-based. The conditions noted are these: NAM; 2.5 min compound incubation; EC80 glutamate; HEK-293 GIRK cells. The method, then: (§1) All cell culture reagents were purchased from Invitrogen Corp. (Carlsbad, Calif.) unless otherwise noted. Compound activity at the group II (mGlu2 and mGlu3) mGlus was assessed using thallium flux through GIRK channels. Briefly, cells were plated into 384-well, black-walled, clear-bottomed poly-D-lysine-coated plates at a density of 15,000 cells/20 μL/well in DMEM containing 10% dialyzed FBS, 20 mM HEPES, and 100 units/mL penicillin/streptomycin (assay media). Plated cells were incubated overnight at 37° C. in the presence of 5% CO2. […] Cells were incubated for 1 h at room temperature, and the dye exchanged to assay buffer using an ELX405, leaving 20 μL/well. Test compounds were diluted to 2 times their final desired concentration in assay buffer (0.3% DMSO final concentration). […] Cell plates and compound plates were loaded onto a kinetic imaging plate reader (FDSS 6000 or 7000; Hamamatsu Corporation, Bridgewater, N.J.). Appropriate baseline readings were taken (10 images at 1 Hz; excitation, 470±20 nm; emission, 540±30 nm) and test compounds were added in a 20 μL volume and incubated for either 2.5 min or 60 min as indicated before the addition of 10 μL of thallium buffer with or without agonist. After the addition of agonist, data were collected for approximately an additional 2.5 min. Data were analyzed using Excel (Microsoft Corp, Redmond, Wash.). The slope of the fluorescence increase beginning 5 s after thallium/agonist addition and ending 15 s after thallium/agonist addition was calculated, corrected to vehicle and maximal agonist control slope values, and plotted in using either XLfit (ID Business Solutions Ltd) or Prism software (GraphPad Software, San Diego, Calif.) to generate concentration-response curves. Potencies were calculated from fits using a four-point parameter logistic equation. For concentration-response curve experiments, compounds were serially diluted 1:3 into 10 point concentration response curves and were transferred to daughter plates using an Echo acoustic plate reformatter (Labcyte, Sunnyvale, Calif.). Test compounds were applied and followed by EC80 concentrations of glutamate.

The next assay concerns the target rat mGlu2 receptor (Rattus norvegicus (Rat), UniProt P31421). Description: mGlu2 in vitro GIRK thallium flux assay. In kind it is cell-based. The conditions noted are these: NAM, EC80 glutamate, HEK-293 GIRK cells. As to the method:
as §1

Setting [1] is: 2.5 min compound incubation, read-out: mGlu2 EC50 (μM) (2.5 min).
[2] abbreviates: mGlu2 EC50 (μM) (60 min), 60 min compound incubation.
Setting [3] is: read-out: mGlu2 EC50 (μM) (60 min), 60 min compound incubation.

Chain of rat mGlu3 receptor (P31422 23-879): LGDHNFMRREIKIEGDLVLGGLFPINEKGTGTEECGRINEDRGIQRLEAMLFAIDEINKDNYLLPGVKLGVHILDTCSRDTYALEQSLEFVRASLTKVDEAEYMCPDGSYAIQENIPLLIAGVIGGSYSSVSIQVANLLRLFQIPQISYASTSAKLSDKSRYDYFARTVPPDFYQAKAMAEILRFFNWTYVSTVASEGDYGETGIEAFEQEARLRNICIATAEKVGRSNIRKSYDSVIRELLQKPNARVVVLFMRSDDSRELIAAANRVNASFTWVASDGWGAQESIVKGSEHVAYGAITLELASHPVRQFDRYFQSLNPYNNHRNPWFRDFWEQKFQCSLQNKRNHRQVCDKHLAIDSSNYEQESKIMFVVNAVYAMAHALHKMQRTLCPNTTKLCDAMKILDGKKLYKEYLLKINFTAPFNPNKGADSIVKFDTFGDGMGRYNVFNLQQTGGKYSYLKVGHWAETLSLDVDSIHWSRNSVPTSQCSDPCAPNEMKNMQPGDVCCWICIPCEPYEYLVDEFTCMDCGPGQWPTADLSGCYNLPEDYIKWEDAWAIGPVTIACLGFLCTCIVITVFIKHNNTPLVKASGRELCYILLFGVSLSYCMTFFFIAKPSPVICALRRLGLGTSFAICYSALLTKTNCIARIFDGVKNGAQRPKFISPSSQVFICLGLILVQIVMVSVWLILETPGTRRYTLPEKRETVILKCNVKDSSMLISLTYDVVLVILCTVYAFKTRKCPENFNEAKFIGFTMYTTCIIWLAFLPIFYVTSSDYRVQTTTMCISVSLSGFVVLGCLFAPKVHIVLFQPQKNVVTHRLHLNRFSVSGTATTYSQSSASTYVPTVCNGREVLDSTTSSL
Chain of rat mGlu2 receptor (P31421 19-872): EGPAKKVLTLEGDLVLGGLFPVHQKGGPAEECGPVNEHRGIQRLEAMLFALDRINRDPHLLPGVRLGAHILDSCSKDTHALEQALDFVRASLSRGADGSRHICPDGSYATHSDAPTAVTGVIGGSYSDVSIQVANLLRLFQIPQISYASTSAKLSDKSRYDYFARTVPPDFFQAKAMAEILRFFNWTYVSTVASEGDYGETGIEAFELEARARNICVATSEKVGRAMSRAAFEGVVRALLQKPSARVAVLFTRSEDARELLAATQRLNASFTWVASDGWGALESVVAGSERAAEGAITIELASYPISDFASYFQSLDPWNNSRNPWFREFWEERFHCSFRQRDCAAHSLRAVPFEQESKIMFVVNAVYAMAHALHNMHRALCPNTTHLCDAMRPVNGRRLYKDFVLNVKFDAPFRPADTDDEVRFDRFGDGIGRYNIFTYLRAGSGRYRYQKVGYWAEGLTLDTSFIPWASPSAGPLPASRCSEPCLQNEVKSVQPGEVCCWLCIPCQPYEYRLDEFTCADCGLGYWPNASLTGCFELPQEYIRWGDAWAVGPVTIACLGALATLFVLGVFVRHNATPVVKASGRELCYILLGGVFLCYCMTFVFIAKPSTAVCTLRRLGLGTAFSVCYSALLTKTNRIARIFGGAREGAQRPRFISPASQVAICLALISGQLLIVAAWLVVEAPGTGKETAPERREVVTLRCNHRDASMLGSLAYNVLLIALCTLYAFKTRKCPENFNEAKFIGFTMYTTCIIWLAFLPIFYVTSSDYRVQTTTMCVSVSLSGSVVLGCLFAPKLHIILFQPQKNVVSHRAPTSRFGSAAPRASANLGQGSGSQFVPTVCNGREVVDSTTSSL

As a reminder, the EC50 is the midpoint of the concentration-response curve. In the case of `NS(=O)(=O)c1cccc(-c2cccc(-c3csc(-c4ccccc4)n3)c2)c1` [Example 2, 3′-(2-Phenylthiazol-4-yl)biphenyl-3-sulfonamide], the EC50 at rat mGlu3 receptor was greater than 30 µM; at rat mGlu2 receptor (setting [1]), greater than 30 µM; at rat mGlu2 receptor (setting [2]), greater than 10 µM.
Take `O=C(O)c1cc(-c2cccc(-c3cnc(-c4ccccc4)s3)c2)ccc1F` [Example 3, 4-Fluoro-3′-(2-phenylthiazol-5-yl)biphenyl-3-carboxylic Acid]: the figures for the EC50 on rat mGlu3 receptor, at rat mGlu2 receptor (setting [1]) and at rat mGlu2 receptor (setting [3]) were greater than 10 µM, greater than 30 µM and greater than 10 µM, respectively.
For the molecule `O=C(O)c1cc(-c2cccc(-c3csc(-c4ccoc4)n3)c2)ccc1F` [Example 4, 4-Fluoro-3′-(2-(furan-3-yl)thiazol-4-yl)biphenyl-3-carboxylic Acid], the EC50 at rat mGlu3 receptor is greater than 10 µM; at rat mGlu2 receptor (setting [1]), 2.26 µM; at rat mGlu2 receptor (setting [2]), 2.5 µM.
With `O=C(O)c1cc(-c2cccc(-c3csc(-c4ccc(C(F)(F)F)nc4)n3)c2)ccc1F` [Example 5, 4-Fluoro-3′-(2-(6-(trifluoromethyl)pyridin-3-yl)thiazol-4-yl)biphenyl-3-carboxylic Acid], the EC50 was determined as 3.11 µM at rat mGlu3 receptor, 1.35 µM on rat mGlu2 receptor (setting [1]) and 0.85 µM at rat mGlu2 receptor (setting [2]).
Turning to `Cc1nc(-c2cccc(-c3ccc(F)c(C(=O)O)c3)c2)cs1` [Example 6, 4-Fluoro-3′-(2-methylthiazol-4-yl)biphenyl-3-carboxylic Acid], the EC50 on rat mGlu3 receptor, at rat mGlu2 receptor (setting [1]) and at rat mGlu2 receptor (setting [2]) was greater than 10 µM each time.
Regarding `O=C(O)c1cc(-c2cccc(-c3csc(-c4ccco4)n3)c2)ccc1F` [Example 7, 4-Fluoro-3′-(2-(furan-2-yl)thiazol-4-yl)biphenyl-3-carboxylic Acid], the EC50 on rat mGlu3 receptor was greater than 10 µM; at rat mGlu2 receptor (setting [1]), 2.4 µM; at rat mGlu2 receptor (setting [2]), greater than 10 µM.
Consider `O=C(O)c1cc(-c2cccc(-c3csc(-c4cc5ccccc5s4)n3)c2)ccc1F` [Example 8, 3′-(2-(Benzo[b]thiophen-2-yl)thiazol-4-yl)-4-fluorobiphenyl-3-carboxylic Acid], for which the EC50 is greater than 10 µM at rat mGlu3 receptor, greater than 10 µM at rat mGlu2 receptor (setting [1]) and 1.92 µM on rat mGlu2 receptor (setting [2]).
As for `O=C(O)c1cc(-c2ccc(-c3csc(-c4ccccc4)n3)s2)ccc1F` [Example 10, 2-Fluoro-5-(5-(2-phenylthiazol-4-yl)thiophen-2-yl)benzoic acid], the EC50 on rat mGlu3 receptor, at rat mGlu2 receptor (setting [1]) and at rat mGlu2 receptor (setting [2]) was greater than 10 µM in each case.
With `O=C(O)c1ccc(F)c(-c2cccc(-c3csc(-c4ccccc4)n3)c2)c1` [Example 11, 6-Fluoro-3′-(2-phenylthiazol-4-yl)biphenyl-3-carboxylic Acid], the figures for the EC50 at rat mGlu3 receptor, at rat mGlu2 receptor (setting [1]) and at rat mGlu2 receptor (setting [2]) were greater than 30 µM, 1.59 µM and 3.4 µM, respectively.
For `COc1ccc(-c2cccc(-c3csc(-c4ccccc4)n3)c2)cc1C(=O)O` [Example 12, 4-Methoxy-3′-(2-phenylthiazol-4-yl)-[1,1′-biphenyl]-3-carboxylic Acid], in that order: 1.77 µM, 1.73 µM and 2.14 µM.
For `O=C(O)c1cc(-c2cccc(-c3csc(-c4ccccc4)n3)c2)cc([N+](=O)[O-])c1` [Example 13, 5-Nitro-3′-(2-phenylthiazol-4-yl)biphenyl-3-carboxylic Acid] the same measures were greater than 10 µM, greater than 10 µM and greater than 10 µM.
In the case of `N#Cc1cccc(-c2cccc(-c3csc(-c4ccccc4)n3)c2)c1` [Example 14, 3′-(2-Phenylthiazol-4-yl)biphenyl-3-carbonitrile], the EC50 is greater than 30 µM on rat mGlu3 receptor, greater than 30 µM on rat mGlu2 receptor (setting [1]) and greater than 10 µM on rat mGlu2 receptor (setting [3]).
As for `O=C(O)c1cc(-c2cccc(-c3csc(-c4cccs4)n3)c2)ccc1F` [Example 15, 4-Fluoro-3′-(2-(thiophen-2-yl)thiazol-4-yl)biphenyl-3-carboxylic Acid], the EC50 at rat mGlu3 receptor was greater than 10 µM; at rat mGlu2 receptor (setting [1]), 1.5 µM; on rat mGlu2 receptor (setting [2]), 0.93 µM.
With `O=C(O)c1cc(-c2cccc(-c3csc(-c4cc5ccccc5o4)n3)c2)ccc1F` [Example 16, 3′-(2-(Benzofuran-2-yl)thiazol-4-yl)-4-fluorobiphenyl-3-carboxylic Acid], the EC50 was found to be 3.32 µM on rat mGlu3 receptor, 2.57 µM on rat mGlu2 receptor (setting [1]) and 1.93 µM on rat mGlu2 receptor (setting [2]).
For `O=C(O)c1cc(-c2ccc(-c3csc(-c4ccccc4)n3)cc2)ccc1F` [Example 17, 4-Fluoro-4′-(2-phenylthiazol-4-yl)biphenyl-3-carboxylic Acid], the EC50 on rat mGlu3 receptor, on rat mGlu2 receptor (setting [1]) and at rat mGlu2 receptor (setting [3]) was greater than 30 µM each time.
For the molecule `O=C(O)c1cc(-c2ccccc2-c2csc(-c3ccccc3)n2)ccc1F` [Example 18, 4-Fluoro-2′-(2-phenylthiazol-4-yl)biphenyl-3-carboxylic Acid], the EC50 on rat mGlu3 receptor was greater than 10 µM; on rat mGlu2 receptor (setting [1]), greater than 10 µM; at rat mGlu2 receptor (setting [3]), greater than 30 µM.
Consider `O=Cc1cc(-c2cccc(-c3csc(-c4ccccc4)n3)c2)ccc1F` [Example 19, 4-Fluoro-3′-(2-phenylthiazol-4-yl)biphenyl-3-carbaldehyde], for which the EC50 at rat mGlu3 receptor was greater than 10 µM; at rat mGlu2 receptor (setting [1]) it was 3.67 µM; at rat mGlu2 receptor (setting [2]), 1.55 µM.
For `ON=Cc1cc(-c2cccc(-c3csc(-c4ccccc4)n3)c2)ccc1F` [Example 20, 4-Fluoro-3′-(2-phenylthiazol-4-yl)biphenyl-3-carbaldehyde oxime], in that order: greater than 30 µM, greater than 30 µM and greater than 10 µM.
For `O=C(O)c1ccc(-c2cccc(-c3csc(-c4ccccc4)n3)c2)cc1Cl` [Example 21, 3-Chloro-3′-(2-phenylthiazol-4-yl)biphenyl-4-carboxylic Acid], in that order: greater than 10 µM, greater than 10 µM and greater than 10 µM.
As to `O=C(O)c1ccc(-c2cccc(-c3csc(-c4ccccc4)n3)c2)cc1` [Example 22, 3′-(2-Phenylthiazol-4-yl)biphenyl-4-carboxylic Acid], the results for the EC50 on rat mGlu3 receptor, at rat mGlu2 receptor (setting [1]) and on rat mGlu2 receptor (setting [2]) were greater than 30 µM, greater than 30 µM and greater than 10 µM, respectively.
In the case of `COc1ccc(C(=O)O)cc1-c1cccc(-c2csc(-c3ccccc3)n2)c1` [Example 23, 6-Methoxy-3′-(2-phenylthiazol-4-yl)biphenyl-3-carboxylic Acid], the concentration for a half-maximal effect (EC50) at rat mGlu3 receptor is greater than 10 µM; at rat mGlu2 receptor (setting [1]) it was 1.81 µM; on rat mGlu2 receptor (setting [2]), 1.35 µM.
In the case of `O=C(O)c1cc(-c2cccc(-c3csc(-c4ccccc4)n3)c2)ccc1Cl` [Example 24, 4-Chloro-3′-(2-phenylthiazol-4-yl)biphenyl-3-carboxylic Acid], the EC50 at rat mGlu3 receptor turned out to be 0.79 µM; on rat mGlu2 receptor (setting [1]) it was 0.57 µM; at rat mGlu2 receptor (setting [2]) it was 0.8 µM.
With `O=C(O)c1ccccc1-c1cccc(-c2csc(-c3ccccc3)n2)c1` [Example 25, 3′-(2-Phenylthiazol-4-yl)biphenyl-2-carboxylic Acid], the EC50 on rat mGlu3 receptor, on rat mGlu2 receptor (setting [1]) and at rat mGlu2 receptor (setting [3]) was greater than 10 µM each time.
With `O=C(O)c1ccc(-c2cccc(-c3csc(-c4ccccc4)n3)c2)c(Cl)c1` [Example 26, 2-Chloro-3′-(2-phenylthiazol-4-yl)biphenyl-4-carboxylic Acid], the EC50 is greater than 10 µM on rat mGlu3 receptor, greater than 30 µM at rat mGlu2 receptor (setting [1]) and greater than 30 µM on rat mGlu2 receptor (setting [2]).
For `O=C(O)c1cc(-c2csc(-c3ccccc3)n2)ccc1F` [Example 27, 2-Fluoro-5-(2-phenylthiazol-4-yl)benzoic acid], the EC50 on rat mGlu3 receptor is greater than 30 µM; at rat mGlu2 receptor (setting [1]), greater than 10 µM; on rat mGlu2 receptor (setting [2]), greater than 30 µM.
On to `O=C(O)c1cccc(-c2cccc(-c3csc(-c4ccccc4)n3)c2)c1` [Example 28, 3′-(2-Phenylthiazol-4-yl)biphenyl-3-carboxylic Acid], for which the values for the EC50 on rat mGlu3 receptor and on rat mGlu2 receptor (setting [2]) were greater than 10 µM and 0.2 µM, respectively.
On to `COc1ccc(-c2nc(-c3cccc(-c4cccc(C(=O)O)c4)c3)cs2)cc1OC` [Example 29, 3-{3-[2-(3,4-Dimethoxyphenyl)-1,3-thiazol-4-yl]phenyl}benzoic acid], for which the EC50 at rat mGlu3 receptor is 4.02 µM; at rat mGlu2 receptor (setting [1]), 2.58 µM; at rat mGlu2 receptor (setting [2]), 1.1 µM.
For `O=C(O)c1cccc(-c2cccc(-c3csc(-c4cccc5ccccc45)n3)c2)c1` [Example 30] the same measures were greater than 30 µM, greater than 10 µM and greater than 10 µM.
